Measurements reported in BindingDB's records for PubMed 20126400 (University of Oklahoma, 2010).

Tests used:
Experiment in all cases: Ray2010 Assay 74
[1] = molecular target: T1, Muscarinic acetylcholine receptor M2 (Homo sapiens, UniProt P08172)
T1 sequence (P08172 whole entry): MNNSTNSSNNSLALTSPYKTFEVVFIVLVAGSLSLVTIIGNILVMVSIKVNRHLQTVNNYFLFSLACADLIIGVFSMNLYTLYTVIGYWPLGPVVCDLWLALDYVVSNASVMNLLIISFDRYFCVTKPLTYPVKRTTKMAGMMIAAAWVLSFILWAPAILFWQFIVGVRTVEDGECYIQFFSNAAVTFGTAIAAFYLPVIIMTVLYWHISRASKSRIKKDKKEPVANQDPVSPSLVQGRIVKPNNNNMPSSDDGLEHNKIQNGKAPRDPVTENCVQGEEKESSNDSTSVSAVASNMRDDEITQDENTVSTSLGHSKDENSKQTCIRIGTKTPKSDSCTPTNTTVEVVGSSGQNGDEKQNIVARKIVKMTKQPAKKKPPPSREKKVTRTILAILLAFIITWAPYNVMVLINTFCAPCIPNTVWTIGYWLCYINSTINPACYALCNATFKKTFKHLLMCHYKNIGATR
Description: (§1) Table S2 shows raw Ki data for the current study combined with data collected from the literature for the ten additional compounds.

[2] = molecular target: T2, Gamma-aminobutyric acid receptor subunit alpha-1 (Homo sapiens, UniProt P14867)
T2 sequence (P14867 whole entry): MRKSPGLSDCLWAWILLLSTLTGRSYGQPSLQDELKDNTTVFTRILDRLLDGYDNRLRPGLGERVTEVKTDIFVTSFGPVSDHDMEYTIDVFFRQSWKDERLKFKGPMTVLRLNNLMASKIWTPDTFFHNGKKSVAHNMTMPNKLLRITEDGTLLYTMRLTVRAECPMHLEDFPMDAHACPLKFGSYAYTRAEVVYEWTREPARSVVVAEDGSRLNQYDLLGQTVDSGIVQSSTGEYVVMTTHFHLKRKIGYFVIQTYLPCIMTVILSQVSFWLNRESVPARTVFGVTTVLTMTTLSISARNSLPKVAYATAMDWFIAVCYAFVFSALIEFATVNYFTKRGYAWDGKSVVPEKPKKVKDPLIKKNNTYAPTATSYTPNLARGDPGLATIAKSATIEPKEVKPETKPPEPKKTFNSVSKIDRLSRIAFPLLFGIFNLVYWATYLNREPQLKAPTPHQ
Description: as §1

[3] = molecular target: T3, 5-hydroxytryptamine receptor 3A (Homo sapiens, UniProt P46098)
T3 sequence (P46098 whole entry): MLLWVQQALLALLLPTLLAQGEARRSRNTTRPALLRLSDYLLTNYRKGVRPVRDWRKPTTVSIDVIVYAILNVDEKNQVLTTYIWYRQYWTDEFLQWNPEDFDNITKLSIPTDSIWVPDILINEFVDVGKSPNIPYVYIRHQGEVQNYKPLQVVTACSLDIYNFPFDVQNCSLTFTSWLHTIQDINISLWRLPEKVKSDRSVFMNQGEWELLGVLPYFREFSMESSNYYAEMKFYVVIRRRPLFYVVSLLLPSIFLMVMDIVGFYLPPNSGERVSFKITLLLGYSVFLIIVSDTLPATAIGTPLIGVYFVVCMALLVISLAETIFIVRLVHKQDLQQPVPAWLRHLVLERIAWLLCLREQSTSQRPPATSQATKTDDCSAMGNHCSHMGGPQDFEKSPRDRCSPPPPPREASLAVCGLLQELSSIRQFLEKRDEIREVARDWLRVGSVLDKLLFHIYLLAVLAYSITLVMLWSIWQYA
Description: as §1

[4] = molecular target: Delta-type opioid receptor (Homo sapiens, UniProt P41143)
Description: as §1

Mu-type opioid receptor = Mu-type opioid receptor (Homo sapiens, UniProt P35372)
Description: as §1

[5] = molecular target: 5-hydroxytryptamine receptor 1D (Homo sapiens, UniProt P28221)
Description: as §1

[6] = molecular target: T4, 5-hydroxytryptamine receptor 1A (Homo sapiens, UniProt P08908)
T4 sequence (P08908 whole entry): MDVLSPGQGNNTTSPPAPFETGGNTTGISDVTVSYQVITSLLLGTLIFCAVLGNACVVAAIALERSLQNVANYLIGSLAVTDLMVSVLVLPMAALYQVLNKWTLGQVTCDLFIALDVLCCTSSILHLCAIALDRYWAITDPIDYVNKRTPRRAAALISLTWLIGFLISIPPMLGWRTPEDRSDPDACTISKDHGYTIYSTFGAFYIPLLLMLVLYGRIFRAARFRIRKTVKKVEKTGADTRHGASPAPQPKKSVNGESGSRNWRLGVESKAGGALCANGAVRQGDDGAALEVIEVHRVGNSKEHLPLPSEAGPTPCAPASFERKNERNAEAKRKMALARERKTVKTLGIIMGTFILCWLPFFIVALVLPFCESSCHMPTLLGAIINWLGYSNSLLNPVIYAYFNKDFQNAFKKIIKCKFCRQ
Description: as §1

Histamine H4 receptor = Histamine H4 receptor (Homo sapiens, UniProt Q9H3N8)
Description: as §1

D(1B) dopamine receptor = D(1B) dopamine receptor (Homo sapiens, UniProt P21918)
Description: as §1

[7] = molecular target: 5-hydroxytryptamine receptor 2B (Homo sapiens, UniProt P41595)
Description: as §1

[8] = molecular target: T5, Alpha-1A adrenergic receptor (Homo sapiens, UniProt P35348)
T5 sequence (P35348 whole entry): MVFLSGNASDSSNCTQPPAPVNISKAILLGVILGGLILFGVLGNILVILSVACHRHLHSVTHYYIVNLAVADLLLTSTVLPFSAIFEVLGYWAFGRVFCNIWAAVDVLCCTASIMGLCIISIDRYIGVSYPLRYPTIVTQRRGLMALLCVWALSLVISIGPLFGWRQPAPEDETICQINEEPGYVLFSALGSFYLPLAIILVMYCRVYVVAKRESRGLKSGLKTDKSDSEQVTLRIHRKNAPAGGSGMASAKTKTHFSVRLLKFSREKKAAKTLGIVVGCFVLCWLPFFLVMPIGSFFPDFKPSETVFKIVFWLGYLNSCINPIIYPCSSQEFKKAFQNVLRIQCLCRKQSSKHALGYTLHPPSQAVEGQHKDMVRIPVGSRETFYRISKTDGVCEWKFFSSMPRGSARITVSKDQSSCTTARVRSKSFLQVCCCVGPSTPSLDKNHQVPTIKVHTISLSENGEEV
Description: as §1

D(2) dopamine receptor = D(2) dopamine receptor (Homo sapiens, UniProt P14416)
Description: as §1

[9] = molecular target: Glutamate receptor ionotropic, NMDA 2A (Homo sapiens, UniProt Q12879)
Description: as §1

[10] = molecular target: Beta-1 adrenergic receptor (Homo sapiens, UniProt P08588)
Description: as §1

[11] = molecular target: 5-hydroxytryptamine receptor 6 (Homo sapiens, UniProt P50406)
Description: as §1

Chain of 5-hydroxytryptamine receptor 6 (P50406 whole entry): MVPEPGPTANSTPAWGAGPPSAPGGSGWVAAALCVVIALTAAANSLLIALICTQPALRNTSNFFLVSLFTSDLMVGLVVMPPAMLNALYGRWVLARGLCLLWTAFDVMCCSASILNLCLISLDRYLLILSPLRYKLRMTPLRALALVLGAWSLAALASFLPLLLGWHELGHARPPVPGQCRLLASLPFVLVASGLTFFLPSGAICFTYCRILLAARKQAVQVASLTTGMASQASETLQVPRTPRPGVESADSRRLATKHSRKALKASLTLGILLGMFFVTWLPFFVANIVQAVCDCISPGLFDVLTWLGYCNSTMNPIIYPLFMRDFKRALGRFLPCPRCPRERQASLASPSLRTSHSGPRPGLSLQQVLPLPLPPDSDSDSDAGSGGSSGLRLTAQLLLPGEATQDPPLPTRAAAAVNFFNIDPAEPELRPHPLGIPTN
Chain of Glutamate receptor ionotropic, NMDA 2A (Q12879 whole entry): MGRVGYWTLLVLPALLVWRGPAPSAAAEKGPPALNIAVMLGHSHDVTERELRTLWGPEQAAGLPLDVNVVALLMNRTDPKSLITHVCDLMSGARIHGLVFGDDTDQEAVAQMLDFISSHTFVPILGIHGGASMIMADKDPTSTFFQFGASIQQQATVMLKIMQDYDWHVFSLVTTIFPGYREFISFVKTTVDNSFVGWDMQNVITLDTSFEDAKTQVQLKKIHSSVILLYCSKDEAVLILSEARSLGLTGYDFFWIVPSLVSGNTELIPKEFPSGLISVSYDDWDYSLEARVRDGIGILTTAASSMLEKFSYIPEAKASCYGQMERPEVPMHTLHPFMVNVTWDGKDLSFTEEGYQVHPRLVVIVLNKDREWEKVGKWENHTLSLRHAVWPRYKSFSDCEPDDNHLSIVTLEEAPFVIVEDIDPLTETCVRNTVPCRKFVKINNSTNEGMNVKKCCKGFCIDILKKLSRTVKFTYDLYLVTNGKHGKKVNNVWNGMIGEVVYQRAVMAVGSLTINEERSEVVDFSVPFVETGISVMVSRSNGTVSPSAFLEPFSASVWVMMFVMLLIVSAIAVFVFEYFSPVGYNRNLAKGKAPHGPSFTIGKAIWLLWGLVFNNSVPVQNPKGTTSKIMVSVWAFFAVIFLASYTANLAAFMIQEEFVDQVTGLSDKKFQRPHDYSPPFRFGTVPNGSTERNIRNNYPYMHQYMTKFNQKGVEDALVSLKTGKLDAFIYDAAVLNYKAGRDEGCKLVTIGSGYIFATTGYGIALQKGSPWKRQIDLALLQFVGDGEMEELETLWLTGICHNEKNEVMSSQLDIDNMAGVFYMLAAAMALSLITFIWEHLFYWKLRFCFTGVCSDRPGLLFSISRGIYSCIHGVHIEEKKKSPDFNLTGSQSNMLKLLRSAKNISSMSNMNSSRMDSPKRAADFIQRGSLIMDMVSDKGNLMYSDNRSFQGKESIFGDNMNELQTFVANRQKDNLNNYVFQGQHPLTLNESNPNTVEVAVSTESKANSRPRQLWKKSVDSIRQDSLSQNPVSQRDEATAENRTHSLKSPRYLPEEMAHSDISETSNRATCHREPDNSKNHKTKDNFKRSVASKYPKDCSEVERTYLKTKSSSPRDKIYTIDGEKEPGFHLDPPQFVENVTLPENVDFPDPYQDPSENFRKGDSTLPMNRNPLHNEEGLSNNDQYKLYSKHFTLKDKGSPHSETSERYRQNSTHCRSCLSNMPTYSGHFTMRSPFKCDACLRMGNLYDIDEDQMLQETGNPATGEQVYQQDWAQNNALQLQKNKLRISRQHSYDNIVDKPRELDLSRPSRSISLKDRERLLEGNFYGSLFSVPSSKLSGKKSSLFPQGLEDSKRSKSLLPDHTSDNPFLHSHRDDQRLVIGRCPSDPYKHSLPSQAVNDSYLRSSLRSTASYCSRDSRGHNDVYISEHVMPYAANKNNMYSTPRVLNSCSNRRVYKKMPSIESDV
Chain of 5-hydroxytryptamine receptor 1D (P28221 whole entry): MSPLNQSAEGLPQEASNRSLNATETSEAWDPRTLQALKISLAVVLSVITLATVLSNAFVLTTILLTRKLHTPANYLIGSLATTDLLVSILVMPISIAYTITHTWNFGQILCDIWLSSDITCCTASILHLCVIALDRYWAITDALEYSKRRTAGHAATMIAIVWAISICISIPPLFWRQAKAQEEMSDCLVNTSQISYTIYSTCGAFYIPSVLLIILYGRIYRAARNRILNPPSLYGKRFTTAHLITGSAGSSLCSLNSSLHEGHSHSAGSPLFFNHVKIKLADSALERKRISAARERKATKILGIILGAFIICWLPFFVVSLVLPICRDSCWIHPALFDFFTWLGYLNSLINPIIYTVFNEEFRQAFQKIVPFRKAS
Chain of Beta-1 adrenergic receptor (P08588 whole entry): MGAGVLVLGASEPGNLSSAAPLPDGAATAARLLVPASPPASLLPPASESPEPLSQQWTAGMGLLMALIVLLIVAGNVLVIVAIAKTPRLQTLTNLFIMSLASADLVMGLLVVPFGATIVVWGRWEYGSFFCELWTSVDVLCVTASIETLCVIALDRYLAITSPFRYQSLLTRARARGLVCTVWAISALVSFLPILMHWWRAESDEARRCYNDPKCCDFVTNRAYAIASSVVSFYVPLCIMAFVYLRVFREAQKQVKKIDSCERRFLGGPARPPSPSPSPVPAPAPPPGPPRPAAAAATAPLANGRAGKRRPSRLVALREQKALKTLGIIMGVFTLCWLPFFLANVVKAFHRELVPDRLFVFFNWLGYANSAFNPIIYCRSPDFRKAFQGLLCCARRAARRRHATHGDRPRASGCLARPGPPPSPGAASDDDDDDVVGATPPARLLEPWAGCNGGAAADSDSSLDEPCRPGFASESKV
Chain of Delta-type opioid receptor (P41143 whole entry): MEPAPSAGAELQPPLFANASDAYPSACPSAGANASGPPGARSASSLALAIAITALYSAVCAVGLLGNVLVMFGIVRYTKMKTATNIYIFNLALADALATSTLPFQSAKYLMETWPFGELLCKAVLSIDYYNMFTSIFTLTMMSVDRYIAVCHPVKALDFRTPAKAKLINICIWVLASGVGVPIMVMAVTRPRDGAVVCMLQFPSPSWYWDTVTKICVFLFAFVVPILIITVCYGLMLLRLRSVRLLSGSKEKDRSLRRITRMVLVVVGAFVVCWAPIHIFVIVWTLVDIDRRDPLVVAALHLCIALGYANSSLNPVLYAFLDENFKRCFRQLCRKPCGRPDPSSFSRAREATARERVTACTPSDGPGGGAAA
Chain of Histamine H4 receptor (Q9H3N8 whole entry): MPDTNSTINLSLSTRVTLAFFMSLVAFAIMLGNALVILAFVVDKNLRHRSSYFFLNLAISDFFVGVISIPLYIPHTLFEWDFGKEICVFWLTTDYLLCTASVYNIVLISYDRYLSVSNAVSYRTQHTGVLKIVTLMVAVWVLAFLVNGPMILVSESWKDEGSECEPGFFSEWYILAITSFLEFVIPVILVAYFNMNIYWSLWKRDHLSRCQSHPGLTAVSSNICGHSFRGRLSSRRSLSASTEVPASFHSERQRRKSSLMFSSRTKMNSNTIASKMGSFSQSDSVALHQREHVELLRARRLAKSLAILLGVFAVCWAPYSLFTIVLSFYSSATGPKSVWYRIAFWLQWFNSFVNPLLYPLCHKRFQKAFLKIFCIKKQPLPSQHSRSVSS
Chain of Mu-type opioid receptor (P35372 whole entry): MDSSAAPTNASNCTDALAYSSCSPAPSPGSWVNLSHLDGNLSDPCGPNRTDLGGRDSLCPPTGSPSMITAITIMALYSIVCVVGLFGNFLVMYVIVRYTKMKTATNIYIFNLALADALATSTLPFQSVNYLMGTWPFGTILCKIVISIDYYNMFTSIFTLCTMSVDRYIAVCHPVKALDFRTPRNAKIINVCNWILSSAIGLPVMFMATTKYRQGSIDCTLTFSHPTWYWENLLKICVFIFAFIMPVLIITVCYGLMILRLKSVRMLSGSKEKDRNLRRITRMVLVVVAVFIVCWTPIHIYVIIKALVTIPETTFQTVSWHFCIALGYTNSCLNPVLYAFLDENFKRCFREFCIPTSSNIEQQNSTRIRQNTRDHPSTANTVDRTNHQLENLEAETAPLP
Chain of 5-hydroxytryptamine receptor 2B (P41595 whole entry): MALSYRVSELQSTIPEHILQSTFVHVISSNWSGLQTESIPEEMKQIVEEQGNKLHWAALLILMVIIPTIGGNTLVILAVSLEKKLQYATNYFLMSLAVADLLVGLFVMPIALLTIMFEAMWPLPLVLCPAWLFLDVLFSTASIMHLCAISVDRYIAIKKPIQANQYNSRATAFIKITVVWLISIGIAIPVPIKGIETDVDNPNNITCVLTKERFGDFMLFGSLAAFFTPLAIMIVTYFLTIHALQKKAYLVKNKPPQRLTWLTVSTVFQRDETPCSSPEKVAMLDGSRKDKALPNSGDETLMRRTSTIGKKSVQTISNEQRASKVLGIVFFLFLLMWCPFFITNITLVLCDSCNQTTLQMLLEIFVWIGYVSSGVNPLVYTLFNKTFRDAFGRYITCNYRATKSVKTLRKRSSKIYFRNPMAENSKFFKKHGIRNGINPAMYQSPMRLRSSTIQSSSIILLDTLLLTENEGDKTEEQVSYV
Chain of D(2) dopamine receptor (P14416 whole entry): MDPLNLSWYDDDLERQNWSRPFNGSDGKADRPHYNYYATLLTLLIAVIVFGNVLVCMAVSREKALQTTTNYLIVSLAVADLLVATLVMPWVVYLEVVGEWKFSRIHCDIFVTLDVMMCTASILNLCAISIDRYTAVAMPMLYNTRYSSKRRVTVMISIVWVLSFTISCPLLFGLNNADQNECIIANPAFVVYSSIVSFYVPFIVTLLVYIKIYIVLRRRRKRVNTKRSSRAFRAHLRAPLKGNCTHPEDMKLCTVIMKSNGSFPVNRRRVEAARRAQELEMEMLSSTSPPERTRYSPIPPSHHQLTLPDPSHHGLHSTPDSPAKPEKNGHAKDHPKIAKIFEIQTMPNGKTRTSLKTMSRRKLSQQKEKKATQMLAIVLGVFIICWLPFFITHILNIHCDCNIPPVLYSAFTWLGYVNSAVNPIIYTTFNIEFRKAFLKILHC

Question: What does the source list for `CCSc1cc(OC)c(CC(C)N)cc1OC` (centres undefined) [2-(4-Ethylsulfanyl-2,5-dimethoxy-phenyl)-1-methyl-ethylamine]?
Answer: Ki [1]: > 10 µM; Ki [2]: > 10 µM; Ki [3]: > 10 µM; Ki [4]: > 10 µM; Ki (Mu-type opioid receptor): > 10 µM; Ki [5]: 1.53 µM; Ki [6]: 1.67 µM; Ki (Histamine H4 receptor): > 10 µM; Ki (D(1B) dopamine receptor): > 10 µM; Ki [7]: 0.0016 µM; Ki [8]: > 10 µM; Ki (D(2) dopamine receptor): > 10 µM; Ki [9]: > 10 µM; Ki [10]: 6.79 µM

Question: `NCCc1c2c(c(Br)c3c1OCC3)OCC2` [2-(8-Bromo-2,3,6,7-tetrahydro-benzo[1,2-b;4,5-b']difuran-4-yl)-ethylamine] was tested. Which Ki [1] did it give?
Answer: Its Ki is 2.03 µM.

Question: And the Ki [2]?
Answer: The Ki was > 10 µM.

Question: What about the Ki [3] of the same compound?
Answer: Its Ki is > 10 µM.

Question: What about the Ki [4] of the same compound?
Answer: The Ki was > 10 µM.

Question: What about the Ki (Mu-type opioid receptor) of the same compound?
Answer: Its Ki is > 10 µM.

Question: What about the Ki [5] of the same compound?
Answer: Its Ki is 0.0014 µM.

Question: What about the Ki [6] of the same compound?
Answer: The Ki was 0.147 µM.

Question: What about the Ki (Histamine H4 receptor) of the same compound?
Answer: Its Ki is > 10 µM.

Question: And the Ki (D(1B) dopamine receptor)?
Answer: Its Ki is > 10 µM.

Question: And the Ki [7]?
Answer: Its Ki is 0.0009 µM.

Question: And the Ki [8]?
Answer: The Ki was > 10 µM.

Question: What about the Ki [11] of the same compound?
Answer: The Ki was 0.15 µM.

Question: What about the Ki (D(2) dopamine receptor) of the same compound?
Answer: Its Ki is 6.84 µM.

Question: And the Ki [10]?
Answer: The Ki was > 10 µM.

Question: For `CCc1[nH]c2ccc(OC)cc2c1CCN(C)C` [2-ethyl-5-methoxy-N,N-dimethyltryptamine], which Ki [1] is on record?
Answer: Its Ki is > 10 µM.

Question: And the Ki [4]?
Answer: The Ki was > 10 µM.

Question: What about the Ki (Mu-type opioid receptor) of the same compound?
Answer: Its Ki is > 10 µM.

Question: What about the Ki (Histamine H4 receptor) of the same compound?
Answer: Its Ki is > 10 µM.

Question: And the Ki (D(2) dopamine receptor)?
Answer: The Ki was > 10 µM.

Question: What about the Ki [9] of the same compound?
Answer: The Ki was > 10 µM.

Question: What does the source list for `CCSc1cc(OC)c(CCN)cc1OC` [2C-T-2]?
Answer: Ki [1]: > 10 µM; Ki [2]: > 10 µM; Ki [3]: > 10 µM; Ki [4]: > 10 µM; Ki (Mu-type opioid receptor): > 10 µM; Ki [5]: 0.0859 µM; Ki [6]: 0.381 µM; Ki (Histamine H4 receptor): > 10 µM; Ki (D(1B) dopamine receptor): > 10 µM; Ki [7]: 0.006 µM; Ki [8]: > 10 µM; Ki [11]: 1.36 µM; Ki (D(2) dopamine receptor): 2.79 µM; Ki [9]: > 10 µM; Ki [10]: 9.2 µM

Question: What does the source list for `COc1cc(CCN)cc(OC)c1OC` [3,4,5-trimethoxyphenylethylamine]?
Answer: Ki [1]: > 10 µM; Ki [2]: > 10 µM; Ki [3]: > 10 µM; Ki [4]: > 10 µM; Ki (Mu-type opioid receptor): > 10 µM; Ki [5]: > 10 µM; Ki [6]: 1.84 µM; Ki (Histamine H4 receptor): > 10 µM; Ki (D(1B) dopamine receptor): > 10 µM; Ki [8]: > 10 µM; Ki [11]: > 10 µM; Ki (D(2) dopamine receptor): > 10 µM; Ki [9]: > 10 µM; Ki [10]: > 10 µM

Question: How did the Ki [1] turn out when `COc1ccc2[nH]cc(CCN(C(C)C)C(C)C)c2c1` [5-meo-dipt] was run?
Answer: The Ki was > 10 µM.

Question: What about the Ki [2] of the same compound?
Answer: Its Ki is > 10 µM.

Question: And the Ki [3]?
Answer: The Ki was > 10 µM.

Question: What about the Ki [4] of the same compound?
Answer: The Ki was > 10 µM.

Question: What about the Ki (Mu-type opioid receptor) of the same compound?
Answer: Its Ki is > 10 µM.

Question: And the Ki [5]?
Answer: Its Ki is 1.72 µM.

Question: What about the Ki [6] of the same compound?
Answer: Its Ki is 0.132 µM.

Question: What about the Ki (Histamine H4 receptor) of the same compound?
Answer: The Ki was > 10 µM.

Question: What about the Ki (D(1B) dopamine receptor) of the same compound?
Answer: Its Ki is > 10 µM.

Question: What about the Ki [7] of the same compound?
Answer: The Ki was 0.163 µM.

Question: What about the Ki [8] of the same compound?
Answer: The Ki was > 10 µM.

Question: And the Ki [11]?
Answer: Its Ki is > 10 µM.

Question: What about the Ki (D(2) dopamine receptor) of the same compound?
Answer: The Ki was > 10 µM.

Question: And the Ki [9]?
Answer: The Ki was > 10 µM.

Question: And the Ki [10]?
Answer: The Ki was > 10 µM.

Question: For `COc1ccc2[nH]c(C)c(CCN(C)C)c2c1` [[2-(5-Methoxy-2-methyl-1H-indol-3-yl)-ethyl]-dimethyl-amine (C2H2O)], which Ki [1] is on record?
Answer: Its Ki is > 10 µM.

Question: What about the Ki [4] of the same compound?
Answer: Its Ki is > 10 µM.

Question: And the Ki (Mu-type opioid receptor)?
Answer: The Ki was > 10 µM.

Question: And the Ki (Histamine H4 receptor)?
Answer: Its Ki is > 10 µM.

Question: And the Ki (D(2) dopamine receptor)?
Answer: Its Ki is > 10 µM.

Question: What about the Ki [9] of the same compound?
Answer: Its Ki is > 10 µM.
